Experimental data as given in patent US12281225B2, “Process for preparing stable polymers containing vinylimidazole” (BASF SE, priority 2018, dated 2025).

Assays:
[1] = Physical stability; visual assessment (color, turbidity, phase separation); type: physicochemical; set-up: key: ++: no discernible change with respect to color, turbidity or phase separation; +: marginal change in color number, somewhat increased Tyndall effect but no turbidity; 0: easily discernible increase in color number and moderate turbidity−no phase separation; −: turbidity and change in color number readily discernible by visual assessment; −−: strong color change with strong turbidity and incipient phase separation
Outline: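 Samples were inspected visually for color, turbidity and phase separation and scored on a five-step scale. Scores run from ++ (no discernible change) to −− (strong color change, strong turbidity, incipient phase separation).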

[2] = Analysis of active substance: preservative concentration before and after storage in VI-containing polymer solution; type: physicochemical; conditions: for active-substance concentration, 0 d, RT: before storage; for active-substance concentration, 14 d, 40° C.: storage 14 d at 40° C.; for active-substance concentration, 28 d, 40° C.: storage 28 d at 40° C.; for active-substance concentration, 60 d 40° C.: storage 60 d at 40° C.
Outline: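 Preservatives (MIT, BIT, CMIT, OIT, DCOIT, iodopropynyl butyl carbamate) in aqueous vinylpyrrolidone–vinylimidazole copolymer solution quantified after dilution by isocratic RP18 chromatography with UV detection, using an acid-methanol eluent.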

[3] = Iodine color number according to DIN 6162:2014-09; type: physicochemical
[4] = test system: Bacteria: Escherichia coli, Staphylococcus aureus, Pseudomonas aeruginosa, Pseudomonas putida, Burkholderia cepacia, Alcaligenes faecalis; assay: Preservation test with periodic inoculation, bacteria assessment; type: cell-based; conditions: for Start sample measurement, bact. assess., 4th inoculation: freshly formulated; for 60 d 40° C., bact. assess., 4th inoculation: sample stored 60 d at 40° C.
Outline: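 Polymer samples (25 g) containing preservative were inoculated weekly, four times, with 10^9/ml bacterial or yeast mixtures (0.5 ml). Weekly streaks on agar were scored semiquantitatively (−− to ++) after 3 days at 25 °C, on fresh samples and on samples stored 60 days at 40 °C.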

[5] = Polymer P5 (HP56) with stabilizer

## CCCCNC(=O)OCC#CI [Iodopropynyl butyl carbamate, iodopropynyl butyl carbamate]
[1]; Polymer P1 with stabilizer
  Physical stability, 60 d 40° C.*: −
[1]; Polymer P2 with stabilizer
  Physical stability, 60 d 40° C.*: −
[1]; Polymer P3 with stabilizer
  Physical stability, 60 d 40° C.*: −
[1]; Polymer P4 with stabilizer
  Physical stability, 60 d 40° C.*: −
[1]; [5]
  Physical stability, 60 d 40° C.*: −
[1]; Polymer P6 with stabilizer
  Physical stability, 60 d 40° C.*: −
[1]; Polymer P7 with stabilizer
  Physical stability, 60 d 40° C.*: −
[1]; Polymer P8 with stabilizer
  Physical stability, 60 d 40° C.*: −
[1]; Polymer P9 with stabilizer
  Physical stability, 60 d 40° C.*: −
[2]; in Polymer P1
  active-substance concentration, 0 d, RT: 250 ppm
  active-substance concentration, 14 d, 40° C.: 206 ppm
  active-substance concentration, 28 d, 40° C.: 176 ppm
  active-substance concentration, 60 d 40° C.: 84 ppm
[2]; in Polymer P2
  active-substance concentration, 0 d, RT: 250 ppm
  active-substance concentration, 14 d, 40° C.: 225 ppm
  active-substance concentration, 28 d, 40° C.: 183 ppm
  active-substance concentration, 60 d 40° C.: 122 ppm
[2]; in Polymer P3
  active-substance concentration, 0 d, RT: 250 ppm
  active-substance concentration, 14 d, 40° C.: 221 ppm
  active-substance concentration, 28 d, 40° C.: 190 ppm
  active-substance concentration, 60 d 40° C.: 107 ppm
[2]; in Polymer P4
  active-substance concentration, 0 d, RT: 250 ppm
  active-substance concentration, 14 d, 40° C.: 212 ppm
  active-substance concentration, 28 d, 40° C.: 188 ppm
  active-substance concentration, 60 d 40° C.: 101 ppm
[2]; in Polymer P5 (HP56)
  active-substance concentration, 0 d, RT: 250 ppm
  active-substance concentration, 14 d, 40° C.: 206 ppm
  active-substance concentration, 28 d, 40° C.: 176 ppm
  active-substance concentration, 60 d 40° C.: 84 ppm
[2]; in Polymer P6
  active-substance concentration, 0 d, RT: 250 ppm
  active-substance concentration, 14 d, 40° C.: 201 ppm
  active-substance concentration, 28 d, 40° C.: 174 ppm
  active-substance concentration, 60 d 40° C.: 80 ppm
[2]; in Polymer P7
  active-substance concentration, 0 d, RT: 250 ppm
  active-substance concentration, 14 d, 40° C.: 207 ppm
  active-substance concentration, 28 d, 40° C.: 178 ppm
  active-substance concentration, 60 d 40° C.: 87 ppm
[2]; in Polymer P8
  active-substance concentration, 0 d, RT: 250 ppm
  active-substance concentration, 14 d, 40° C.: 206 ppm
  active-substance concentration, 28 d, 40° C.: 176 ppm
  active-substance concentration, 60 d 40° C.: 84 ppm
[2]; in Polymer P9
  active-substance concentration, 0 d, RT: 250 ppm
  active-substance concentration, 14 d, 40° C.: 191 ppm
  active-substance concentration, 28 d, 40° C.: 160 ppm
  active-substance concentration, 60 d 40° C.: 78 ppm
[3]; Polymer P1 with stabilizer
  Iodine color number, 60 d 40° C.: 7.5
  Iodine color number, start: 2.8
[3]; Polymer P2 with stabilizer
  Iodine color number, 60 d 40° C.: 8.0
  Iodine color number, start: 2.8
[3]; Polymer P3 with stabilizer
  Iodine color number, 60 d 40° C.: 10.4
  Iodine color number, start: 3.4
[3]; Polymer P4 with stabilizer
  Iodine color number, 60 d 40° C.: 10.0
  Iodine color number, start: 3.4
[3]; [5]
  Iodine color number, 60 d 40° C.: 11.7
  Iodine color number, start: 3.4
[3]; Polymer P6 with stabilizer
  Iodine color number, 60 d 40° C.: 11.0
  Iodine color number, start: 3.4
[3]; Polymer P7 with stabilizer
  Iodine color number, 60 d 40° C.: 11.0
  Iodine color number, start: 3.4
[3]; Polymer P8 with stabilizer
  Iodine color number, 60 d 40° C.: 11.4
  Iodine color number, start: 3.4
[3]; Polymer P9 with stabilizer
  Iodine color number, 60 d 40° C.: 16.9
  Iodine color number, start: 3.9
[4]; Polymer P1
  Start sample measurement, bact. assess., 4th inoculation: − (slight growth, max. 100 colonies)
  60 d 40° C., bact. assess., 4th inoculation: 0 (moderate growth, max. 400 colonies)
[4]; Polymer P2
  Start sample measurement, bact. assess., 4th inoculation: − (slight growth, max. 100 colonies)
  60 d 40° C., bact. assess., 4th inoculation: +
[4]; Polymer P3
  Start sample measurement, bact. assess., 4th inoculation: − (slight growth, max. 100 colonies)
  60 d 40° C., bact. assess., 4th inoculation: +
[4]; Polymer P4
  60 d 40° C., bact. assess., 4th inoculation: 0 (moderate growth, max. 400 colonies)
[4]; Polymer P5 (HP56)
  Start sample measurement, bact. assess., 4th inoculation: − (slight growth, max. 100 colonies)
  60 d 40° C., bact. assess., 4th inoculation: +
[4]; Polymer P6
  60 d 40° C., bact. assess., 4th inoculation: +
[4]; Polymer P7
  60 d 40° C., bact. assess., 4th inoculation: +
[4]; Polymer P8
  Start sample measurement, bact. assess., 4th inoculation: − (slight growth, max. 100 colonies)
  60 d 40° C., bact. assess., 4th inoculation: +
[4]; Polymer P9
  60 d 40° C., bact. assess., 4th inoculation: +
